Data: PubChem BioAssay AID1918955 (Molecular Pharmacology Branch, DTP, NCI, 2023)

System: NCI/ADR-RES complex spheroid viability
Experiment: Anticancer human tumor NCI/ADR-RES cell line growth inhibition;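 also: spheroids exposed to compounds for 7 days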;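 as to viability, T/C: 100% = DMSO vehicle treated spheroids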
Conditions: for IC50: curve of first compound; for viability, T/C: stronger effect = lower value; active = viability on the fitted dose curve at most 10% of control; inactive = the rest
How it was run: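 Drug combinations with the LSD1 inhibitor iadademstat tested on tumor cells co-cultured as spheroids with endothelial cells and mesenchymal stem cells. Concentrations descended in half-log increments from clinical Cmax or 10 microM.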

[1] = second compound 0.1 µM, first compound 0.0316 µM
[2] = second compound 0.1 µM, first compound 0.1 µM
[3] = second compound 0.1 µM, first compound 0.316 µM
[4] = second compound 0.1 µM, first compound 1 µM
[5] = second compound 0.316 µM, first compound 0.0316 µM
[6] = second compound 0.316 µM, first compound 0.1 µM
[7] = second compound 0.316 µM, first compound 0.316 µM
[8] = second compound 0.316 µM, first compound 1 µM
[9] = second compound 1 µM, first compound 0.0316 µM
[10] = second compound 1 µM, first compound 0.1 µM
[11] = second compound 1 µM, first compound 0.316 µM
[12] = second compound 1 µM, first compound 1 µM
[13] = second compound 3.16 µM, first compound 0.0316 µM
[14] = second compound 3.16 µM, first compound 0.1 µM
[15] = second compound 3.16 µM, first compound 0.316 µM
[16] = second compound 3.16 µM, first compound 1 µM
[17] = second compound 10 µM, first compound 0.0316 µM
[18] = second compound 10 µM, first compound 0.1 µM
[19] = second compound 10 µM, first compound 0.316 µM
[20] = second compound 10 µM, first compound 1 µM
[21] = second compound 0.1 µM, first compound 0.00949 µM
[22] = second compound 0.1 µM, first compound 0.03 µM
[23] = second compound 0.1 µM, first compound 0.0949 µM
[24] = second compound 0.1 µM, first compound 0.3 µM
[25] = second compound 0.1 µM, first compound 0.949 µM
[26] = second compound 0.1 µM, first compound 3 µM
[27] = second compound 0.316 µM, first compound 0.00949 µM
[28] = second compound 0.316 µM, first compound 0.03 µM
[29] = second compound 0.316 µM, first compound 0.0949 µM
[30] = second compound 0.316 µM, first compound 0.3 µM
[31] = second compound 0.316 µM, first compound 0.949 µM
[32] = second compound 0.316 µM, first compound 3 µM
[33] = second compound 1 µM, first compound 0.00949 µM
[34] = second compound 1 µM, first compound 0.03 µM
[35] = second compound 1 µM, first compound 0.0949 µM
[36] = second compound 1 µM, first compound 0.3 µM
[37] = second compound 1 µM, first compound 0.949 µM
[38] = second compound 1 µM, first compound 3 µM
[39] = second compound 3.16 µM, first compound 0.00949 µM
[40] = second compound 3.16 µM, first compound 0.03 µM
[41] = second compound 3.16 µM, first compound 0.0949 µM
[42] = second compound 3.16 µM, first compound 0.3 µM
[43] = second compound 3.16 µM, first compound 0.949 µM
[44] = second compound 3.16 µM, first compound 3 µM
[45] = second compound 10 µM, first compound 0.00949 µM
[46] = second compound 10 µM, first compound 0.03 µM
[47] = second compound 10 µM, first compound 0.0949 µM
[48] = second compound 10 µM, first compound 0.3 µM
[49] = second compound 10 µM, first compound 0.949 µM
[50] = second compound 10 µM, first compound 3 µM
[51] = second compound 0.1 µM, first compound 0.00316 µM
[52] = second compound 0.1 µM, first compound 0.01 µM
[53] = second compound 0.316 µM, first compound 0.00316 µM
[54] = second compound 0.316 µM, first compound 0.01 µM
[55] = second compound 1 µM, first compound 0.00316 µM
[56] = second compound 1 µM, first compound 0.01 µM
[57] = second compound 3.16 µM, first compound 0.00316 µM
[58] = second compound 3.16 µM, first compound 0.01 µM
[59] = second compound 10 µM, first compound 0.00316 µM
[60] = second compound 10 µM, first compound 0.01 µM

CC1(C)CCC(CN2CCN(c3ccc(C(=O)NS(=O)(=O)c4ccc(NCC5CCOCC5)c([N+](=O)[O-])c4)c(Oc4cnc5[nH]ccc5c4)c3)CC2)=C(c2ccc(Cl)cc2)C1 + NC1CC1c1ccc(-c2cccc(O)c2)cc1
> 10000 nM: IC50 (second compound 0.1 µM) | IC50 (second compound 0.316 µM) | IC50 (second compound 1 µM) | IC50 (second compound 3.16 µM) | IC50 (second compound 10 µM)
inactive: viability, T/C [1] 107% | viability, T/C [2] 109% | viability, T/C [3] 109% | viability, T/C [4] 104% | viability, T/C (second compound 0.1 µM, first compound 3.16 µM) 101% | viability, T/C (second compound 0.1 µM, first compound 10 µM) 95.6% | viability, T/C [5] 110% | viability, T/C [6] 111% | viability, T/C [7] 113% | viability, T/C [8] 101% | viability, T/C (second compound 0.316 µM, first compound 3.16 µM) 103% | viability, T/C (second compound 0.316 µM, first compound 10 µM) 89.7% | viability, T/C [9] 103% | viability, T/C [10] 106% | viability, T/C [11] 103% | viability, T/C [12] 99.8% | viability, T/C (second compound 1 µM, first compound 3.16 µM) 101% | viability, T/C (second compound 1 µM, first compound 10 µM) 99.4% | viability, T/C [13] 97.1% | viability, T/C [14] 97.8% | viability, T/C [15] 102% | viability, T/C [16] 108% | viability, T/C (second compound 3.16 µM, first compound 3.16 µM) 98.6% | viability, T/C (second compound 3.16 µM, first compound 10 µM) 89.8% | viability, T/C [17] 88.6% | viability, T/C [18] 98.4% | viability, T/C [19] 92.3% | viability, T/C [20] 94.5% | viability, T/C (second compound 10 µM, first compound 3.16 µM) 81.6% | viability, T/C (second compound 10 µM, first compound 10 µM) 75.7%

CCN(c1cc(-c2ccc(CN3CCOCC3)cc2)cc(C(=O)NCc2c(C)cc(C)[nH]c2=O)c1C)C1CCOCC1 + NC1CC1c1ccc(-c2cccc(O)c2)cc1
inactive: viability, T/C [21] 102% | viability, T/C [22] 104% | viability, T/C [23] 104% | viability, T/C [24] 106% | viability, T/C [25] 94.2% | viability, T/C [26] 88.9% | viability, T/C [27] 104% | viability, T/C [28] 102% | viability, T/C [29] 104% | viability, T/C [30] 103% | viability, T/C [31] 105% | viability, T/C [32] 95.5% | viability, T/C [33] 92.1% | viability, T/C [34] 96.3% | viability, T/C [35] 104% | viability, T/C [36] 90.2% | viability, T/C [37] 93.4% | viability, T/C [38] 87.7% | viability, T/C [39] 93% | viability, T/C [40] 99% | viability, T/C [41] 95.3% | viability, T/C [42] 94.9% | viability, T/C [43] 90.2% | viability, T/C [44] 81.8% | viability, T/C [45] 92.6% | viability, T/C [46] 87.8% | viability, T/C [47] 91.8% | viability, T/C [48] 86.7% | viability, T/C [49] 82.7% | viability, T/C [50] 79%
> 3000 nM: IC50 (second compound 0.1 µM) | IC50 (second compound 0.316 µM) | IC50 (second compound 1 µM) | IC50 (second compound 3.16 µM) | IC50 (second compound 10 µM)

COc1cc(Nc2ncc3c(n2)-c2ccc(Cl)cc2C(c2c(F)cccc2OC)=NC3)ccc1C(=O)O + NC1CC1c1ccc(-c2cccc(O)c2)cc1
18.3 nM: IC50 (second compound 0.316 µM)
17.6 nM: IC50 (second compound 1 µM)
16.9 nM: IC50 (second compound 0.1 µM)
19.5 nM: IC50 (second compound 3.16 µM)
17.1 nM: IC50 (second compound 10 µM)
inactive: viability, T/C [51] 86% | viability, T/C [52] 64.9% | viability, T/C [1] 32.5% | viability, T/C [2] 16% | viability, T/C [3] 15.4% | viability, T/C [4] 14.4% | viability, T/C [53] 93.5% | viability, T/C [54] 65.8% | viability, T/C [5] 36.7% | viability, T/C [6] 18% | viability, T/C [7] 15.7% | viability, T/C [8] 17.3% | viability, T/C [55] 89.7% | viability, T/C [56] 62.2% | viability, T/C [9] 38.1% | viability, T/C [10] 19.7% | viability, T/C [11] 14.4% | viability, T/C [12] 12% | viability, T/C [57] 88.6% | viability, T/C [58] 63.6% | viability, T/C [13] 41.8% | viability, T/C [14] 19.4% | viability, T/C [15] 15.9% | viability, T/C [16] 11.8% | viability, T/C [59] 79.2% | viability, T/C [60] 57.8% | viability, T/C [17] 41.2% | viability, T/C [18] 23.6% | viability, T/C [19] 13% | viability, T/C [20] 11.9%

Cn1ncnc1C1c2n[nH]c(=O)c3cc(F)cc(c23)NC1c1ccc(F)cc1 (stereo not given) + NC1CC1c1ccc(-c2cccc(O)c2)cc1
> 100 nM: IC50 (second compound 0.1 µM) | IC50 (second compound 0.316 µM) | IC50 (second compound 1 µM) | IC50 (second compound 3.16 µM) | IC50 (second compound 10 µM)
inactive: viability, T/C (second compound 0.1 µM, first compound 0.000316 µM) 101% | viability, T/C (second compound 0.1 µM, first compound 0.001 µM) 104% | viability, T/C [51] 106% | viability, T/C [52] 103% | viability, T/C [1] 104% | viability, T/C [2] 97% | viability, T/C (second compound 0.316 µM, first compound 0.000316 µM) 104% | viability, T/C (second compound 0.316 µM, first compound 0.001 µM) 107% | viability, T/C [53] 104% | viability, T/C [54] 110% | viability, T/C [5] 110% | viability, T/C [6] 105% | viability, T/C (second compound 1 µM, first compound 0.000316 µM) 98.2% | viability, T/C (second compound 1 µM, first compound 0.001 µM) 101% | viability, T/C [55] 109% | viability, T/C [56] 95.8% | viability, T/C [9] 100% | viability, T/C [10] 102% | viability, T/C (second compound 3.16 µM, first compound 0.000316 µM) 105% | viability, T/C (second compound 3.16 µM, first compound 0.001 µM) 99.3% | viability, T/C [57] 100% | viability, T/C [58] 97% | viability, T/C [13] 97.3% | viability, T/C [14] 93.8% | viability, T/C (second compound 10 µM, first compound 0.000316 µM) 97.1% | viability, T/C (second compound 10 µM, first compound 0.001 µM) 91.1% | viability, T/C [59] 90.5% | viability, T/C [60] 96.8% | viability, T/C [17] 94.6% | viability, T/C [18] 85.3%

NS(=O)(=O)OCC1CC(n2ccc3c(NC4CCc5ccccc54)ncnc32)CC1O (stereo not given) + NC1CC1c1ccc(-c2cccc(O)c2)cc1
1160 nM: IC50 (second compound 1 µM)
1110 nM: IC50 (second compound 3.16 µM)
inactive: viability, T/C [21] 99.2% | viability, T/C [22] 90.5% | viability, T/C [23] 92.1% | viability, T/C [24] 78.4% | viability, T/C [25] 55% | viability, T/C [26] 20.6% | viability, T/C [27] 96.7% | viability, T/C [28] 100% | viability, T/C [29] 85.9% | viability, T/C [30] 77.5% | viability, T/C [31] 51.6% | viability, T/C [32] 22.2% | viability, T/C [33] 98.5% | viability, T/C [34] 88.4% | viability, T/C [35] 86.7% | viability, T/C [36] 78.6% | viability, T/C [37] 54.5% | viability, T/C [38] 23.2% | viability, T/C [39] 96.8% | viability, T/C [40] 94.8% | viability, T/C [41] 86.3% | viability, T/C [42] 77% | viability, T/C [43] 54.3% | viability, T/C [44] 22.2% | viability, T/C [45] 92% | viability, T/C [46] 89.9% | viability, T/C [47] 81% | viability, T/C [48] 75.1% | viability, T/C [49] 53.3% | viability, T/C [50] 27%
1030 nM: IC50 (second compound 0.316 µM)
1130 nM: IC50 (second compound 0.1 µM) | IC50 (second compound 10 µM)
